Results on 4 molecules are retold here after PMC5343874, “High Specific Selectivity and Membrane-Active Mechanism of Synthetic Cationic Hybrid Antimicrobial Peptides Based on the Peptide FV7” (International Journal of Molecular Sciences, 2017).

No end group written: not given here. A value given as a limit tells only on which side of the number the result lay.

Data set [1] relates to human red blood cells (hRBC). In words: Hemolytic activity. The class given is cell-based. Conditions: 37 °C. The procedure:
The hemolytic activity of the peptides was evaluated by measuring the amount of released hemoglobin by the lysis of erythrocytes. The measurement was as previously described. Human red blood cells (hRBC) were obtained from healthy donors by the ethics committee of the Northeast Agricultural University Hospital. The fresh blood cells were washed 2–3 times in PBS (pH 7.4) and centrifuged at 1000× g for 5 min at 4 °C, then resuspended in PBS. Briefly, 50 μL of hRBC solution was incubated with 50 μL of different concentrations of each peptide dissolved in PBS in a 96-well microtiter plate. After incubation for 1 h at 37 °C, the mixtures were centrifuged at 1000× g for 5 min at 4 °C and then the supernatant was transferred to another 96-well microtiter plate. The release of hemoglobin was monitored by measurement of the absorbance at 570 nm using a multimode microplate reader (SpectraMax M5, Molecular Devices, San Francisco, CA, USA). The concentration causing 5% hemolysis was defined as the minimal hemolytic concentration (MHC). The control samples for 0% and 100% hemolysis consisted of hRBC in PBS (Ablank) only and in 0.1% Triton X-100 (Atriton), respectively. The percent hemolysis was calculated according to the following equation: % Hemolysis = [(Asample − Ablank)/(Atriton − Ablank)] × 100

The test system of data set [2] is S. aureus ATCC 29213. Put plainly: Salt and heat sensitivity (MIC). The class given is cell-based, Staphylococcus aureus. The arrangement: key to MIC, FeCl3 / MIC, Mix / MIC, Control / MIC, NaCl / MIC, KCl / MIC, NH4Cl / MIC, MgCl2 / MIC, ZnCl2 / MIC, CaCl2: MIC in µM (peptide serial dilutions 0.5–128 µM); MIC, Heat (100 °C): unit not given beside the values. How it is done:
(§1) Minimum inhibitory concentration (MIC) was determined using the modified standard microtiter dilution method as described previously. The bacteria were incubated overnight at 37 °C, […] at 220 rpm and transferred to new nutrient broth (MHB) until the logarithmic phase of growth. The bacteria were then diluted into 10^5 colony forming units (10^5 CFU/mL) in MHB. The peptides were dissolved and diluted in 0.01% acetic acid and 0.2% bovine serum albumin (BSA). Briefly, serial diluted (0.5–128 µM) peptides were added to sterile 96-well plates in a 50-μL volume of bacteria in MHB mixed with 50 µL. […] The results are expressed as an average of the MICs at least three times.
(§2) The incubation to test for thermal stability occurred at 100 °C for 1 h. After these treatments, the procedures were the same as described above for the MIC assay.

Data set [3] relates to E. coli ATCC 25922. In words: Salt and heat sensitivity (MIC). The arrangement: key to MIC, Control / MIC, NaCl / MIC, KCl / MIC, NH4Cl / MIC, MgCl2 / MIC, ZnCl2 / MIC, FeCl3 / MIC, CaCl2 / MIC, Mix: MIC in µM (peptide serial dilutions 0.5–128 µM); MIC, Heat (100 °C): unit not given beside the values. Type of data set: cell-based, Escherichia coli. The procedure:
as §1, §2

In data set [4] the test system is E. coli UB1005 inner membrane. In words: Inner membrane permeability (ONPG hydrolysis). The class given is cell-based, Escherichia coli. Conditions: 1× MIC, absorbance 420 nm, 0–30 min. How it is done: The inner membrane permeability activity against E. coli bacteria was determined by the uptake of ONPG. E. coli UB 1005 cells were cultured to mid-log phase in MHB medium containing 2% lactose at 37 °C, and harvested by centrifugation at 3000× g for 5 min. After washing twice, the cells were diluted to an OD600 of 0.05 with buffer (10 mM PBS, pH 7.4) containing 1.5 mM ONPG. […] The value of OD reflected the ONPG flowing into the cells was measured at 420 nm from 0 to 30 min every two min.

In data set [5] the test system is P. aeruginosa ATCC 27853. The class given is cell-based, Pseudomonas aeruginosa. The procedure:
as §1
(§3) E. coli ATCC 25,922, S. typhimurium ATCC 7731, S. typhimurium ATCC 14028, P. aeruginosa ATCC 27853, B. subtilis CMCC 63501, S. aureus ATCC 29213, S. epidermidis ATCC 12228 and E. faecalis ATCC 29212 were obtained from the College of Veterinary Medicine, Northeast Agricultural University (Harbin, China). E. coli UB1005 was kindly provided by Qingsheng Qi (State Key Laboratory of Microbial Technology, Shandong University, Jinan, China). P. Aeruginosa PAO1 was kindly provided by Wengong Yu (State Key Laboratory of School of Medicine and Pharmacy, Ocean University of China, Qingdao, China).

The subject of data set [6] is P. aeruginosa PAO1. The class given is cell-based, Pseudomonas aeruginosa. The procedure:
as §1, §3

Data set [7] has as its system B. subtilis CMCC 63501. The class given is cell-based, Bacillus subtilis. The procedure: as §1, §3
The test system of data set [8] is S. epidermidis ATCC12228. The class given is cell-based, Staphylococcus epidermidis. How it is done: as §1, §3
Data set [9] has as its system S. typhimurium ATCC 14028. The class given is cell-based, Salmonella typhimurium. The procedure: as §1, §3
Data set [10] deals with S. typhimurium ATCC 7731. The class given is cell-based, Salmonella typhimurium. How it is done:
as §1, §3

For data set [11], the system named is E. coli UB 1005. The class given is cell-based, Escherichia coli. How it is done:
as §1, §3

Data set [12] deals with E. coli ATCC 25922. Type of data set: cell-based, Escherichia coli. The procedure: as §1, §3
Data set [13] relates to S. aureus ATCC 29213. The class given is cell-based, Staphylococcus aureus. How it is done: as §1, §3
Data set [14] has as its system Gram-negative and Gram-positive bacteria. In words: MIC across the bacterial panel. Type of data set: cell-based. The procedure: as §1, §3
Data set [15] relates to S. faecalis ATCC 29212. The class given is cell-based. How it is done: as §1, §3
Setting [16] is: mixture medium with all salts in physiological concentrations.
[17] abbreviates: peptide incubated at 100 °C for 1 h.

For the molecule `CC[C@H](C)[C@H](NC(=O)CN)C(=O)NCC(=O)N[C@@H](C)C(=O)N[C@H](C(=O)N[C@@H](CC(C)C)C(=O)N[C@@H](CCCCN)C(=O)N[C@H](C(=O)N[C@@H](CC(C)C)C(=O)N[C@H](C(=O)N[C@H](C(=O)NCC(=O)N[C@@H](CC(C)C)C(=O)N1CCC[C@H]1C(=O)N[C@@H](C)C(=O)N[C@@H](CC(C)C)C(=O)N[C@H](C(=O)N[C@@H](CO)C(=O)N[C@@H](Cc1c[nH]c2ccccc12)C(=O)N[C@H](C(=O)N[C@@H](CCCCN)C(=O)N[C@@H](CCCNC(=N)N)C(=O)N[C@@H](CCCCN)C(=O)N[C@@H](CCCNC(=N)N)C(=O)N[C@@H](CCC(N)=O)C(=O)N[C@@H](CCC(N)=O)C(N)=O)[C@@H](C)CC)[C@@H](C)CC)[C@@H](C)O)[C@@H](C)O)C(C)C)C(C)C` [ME26, melittin], in data set [1] (human erythrocytes, 1 h), the “concentration giving complete hemolysis” value is “greater than 4 µM”. Also, the “MIC, MgCl2” value in data set [2] (1 mM MgCl2) came out at 2; in data set [3] (1 mM MgCl2), 4. For the same molecule, the “MIC, CaCl2” value in [2] (2.5 mM CaCl2) worked out at 4; in data set [3] (2.5 mM CaCl2) it was 2. Further, the “MIC, FeCl3” value in [2] (4 mM FeCl3) and in [3] (4 mM FeCl3) was 2 throughout. Moreover, the “MIC, KCl” value in data set [2] (4.5 mM KCl) turned out to be 4; in [3] (4.5 mM KCl), 2. In addition, the “MIC, NH4Cl” value in data set [2] (6 mM NH4Cl) and in data set [3] (6 mM NH4Cl) was 2 throughout. Also, the “MIC, ZnCl2” value in [2] (8 mM ZnCl2) is 2; in data set [3] (8 mM ZnCl2), 4. Further, the “MIC, NaCl” value in data set [2] (150 mM NaCl) and in [3] (150 mM NaCl) was 4 in each case. In addition, the entries for the “MIC, Control” value in [2] (absence of physiological salts) and in data set [3] (absence of physiological salts) were 8 and 2, respectively. Further, the “MIC, Mix” value in data set [2] (setting [16]) and in data set [3] (setting [16]) was 4 each time. For the same molecule, the “MIC, Heat (100 °C)” value in data set [2] (setting [17]) was 8; in [3] (setting [17]), 2. The “inner membrane permeability (ONPG hydrolysis, in words)” value in data set [4] is reported as “highest ability for inner membrane permeability”.

Broadly, the MIC is the lowest concentration found to suppress growth. For AKKFGKAFVGEIM-NH2 [MA], the MIC in [5], in [6], in data set [7], in [8], in data set [9] and in data set [10] was more than 64 µM each time. Besides, the MIC in data set [11] is more than 64 µM; in data set [12] it was 32 µM; in data set [13], more than 64 µM; in [15] it was more than 64 µM. For the same molecule, in [14], the minimum inhibitory concentration result is reported as “greater than 64 μM”.

Regarding FKRIVQRIKDFLR-NH2 [LL], the MIC turned out to be 8 µM in [5]; 16 µM in data set [6]; 16 µM in data set [7]; 8 µM in data set [8]; 32 µM in data set [9]; 16 µM in [10]. Besides, the MIC in [11] amounted to 16 µM; in [12], 16 µM; in [13], 16 µM; in data set [15], 32 µM.

Take FRIRVRV-NH2 [FV7]: the MIC in data set [5] was 16 µM; in data set [6] it was 32 µM; in [7] it was 16 µM; in data set [8], 32 µM; in data set [9] it was 16 µM; in data set [10], 32 µM. Also, the MIC is 32 µM in data set [11], 16 µM in [12], 64 µM in [13] and 32 µM in data set [15]. The hemolysis result in [1] (at 128 µM, human erythrocytes, 1 h) is reported as “approximately 15%”. In data set [1] (fresh human erythrocytes in PBS pH 7.4, 1 h, absorbance 570 nm, maximal concentration 128 µM, averages of three independent experiments), the “concentration causing 5% hemolysis (minimal hemolytic concentration, MHC)” value came to 4 µM.
